# US10385050B2, “Indolin-2-one and 1,3-dihydro-pyrrolo[3,2-c]pyridin-2-one derivatives” (Hoffmann-La Roche Inc., priority 2014, dated 2019)
# Test system: L-687,414-induced hyperlocomotion
# Assay: Reversal of L-687,414-induced hyperlocomotion (Digiscan locomotor activity)
# Type: in vivo, mouse
# Settings: Mus musculus, 0.5 h; dose ip 30 mg/kg at the same time as s.c. 50 mg/kg L-687,414; horizontal activity over 30 min
# Text: The authors described that hyperlocomotion induced by L-687,414 was inhibited by a series of known antipsychotic drugs. […] These findings predict antipsychotic activity for the present compounds, making them useful for the treatment of positive (psychosis) and negative symptoms of schizophrenia, substance abuse, alcohol and drug addiction, obsessive-compulsive disorders, cognitive impairment, bipolar disorders, mood disorders, major depression, resistant depression, anxiety disorders, Alzheimer's disease, autism, Parkinson's disease, chronic pain, borderline personality disorder, sleep disturbances, chronic fatigue syndrome, stiffness, antiinflammatory effects in arthritis and balance problems.
# The described compounds of formula I reduce L-687,414-induced hyperlocomotion. This was assessed by using a computerized Digiscan 16 Animal Activity Monitoring System (Omnitech Electronics, Columbus, Ohio) to quantify locomotor activity. Animals were kept under a 12 h light/dark cycle and experiments were performed during the light period. Each activity monitoring chamber consisted of a Plexiglas box (41×41×28 cm; W×L×H) with sawdust bedding on the floor surrounded by invisible horizontal and vertical infrared sensor beams. The test boxes were divided by a Plexiglas cross providing each mouse with 20×20 cm of moving space. Cages were connected to a Digiscan Analyzer linked to a computer that constantly collected the beam status information. Records of photocell beam interruptions for individual animals were taken every 5 min over the duration of the experimental session and the sum of the first 6 periods was used as the final parameter. Compounds were administered either p.o. 15 min before a s.c. injection of 50 mg/kg of L-687,414, or i.p. at the same time as a s.c. injection of 50 mg/kg of L-687,414. Mice were then transferred from their home cage to the recording chambers for a 15-min habituation phase allowing free exploration of the new environment. Horizontal activity was then recorded for a 30-min time period. The % inhibition of L-687,414-induced hyperlocomotion was calculated according to the equation: ((Veh+L-687,414 horizontal activity−drug+L-687,414 horizontal activity)/Veh+L−687,414 horizontal activity)×100
# ID50 values, defined as doses of each compound producing 50% inhibition of L-687,414-induced hyperlocomotion, were calculated by linear regression analysis of a dose-response data using an Excel-based computer-fitting program.
# As data was not presupposed to be normally distributed, groups treated with test compounds were statistically compared with the control (vehicle-treated) group using one-tailed Mann Whitney U tests. In statistics, the Mann-Whitney U test (also called the Mann-Whitney-Wilcoxon (MWW) or Wilcoxon rank-sum test) is a non-parametric statistical hypothesis test for assessing whether one of two samples of independent observations tends to have larger values than the other. It is one of the most well-known non-parametric significance tests. […] P values given in table 1 are one-tailed since only decreases in locomotion were expected and tested for (Mann, H. B., Whitney, D. R. (1947), “On a Test of Whether one of Two Random Variables is Stochastically Larger than the Other”, Annals of Mathematical Statistics, 18 (1), 50-60).
row,Compound,inhibition in vivo at 30 mg/kg [%]
1,"CN1C(=O)C(C)(C)c2ccc(-c3cnc(-c4ccncc4)[nH]3)cc21 [Example 3, 1,3,3-Trimethyl-6-(2-(pyridin-4-yl)-1H-imidazol-5-yl)indolin-2-one]",58.9
2,"CN1C(=O)C(C)(C)c2ccc(-c3cnc(-c4cccnc4)o3)cc21 [Example 7, 1,3,3-Trimethyl-6-(2-(pyridin-3-yl)oxazol-5-yl)indolin-2-one]",83.9
3,"CC1(C)C(=O)N(C2CC2)c2cc(-c3cnc(-c4cccnc4)o3)ccc21 [Example 8, 1-Cyclopropyl-3,3-dimethyl-6-(2-(pyridin-3-yl)oxazol-5-yl)indolin-2-one]",80.5
4,"CC1(C)C(=O)N(C2CC2)c2cc(-c3cnc(-c4ccncc4)o3)ccc21 [Example 10, 1-Cyclopropyl-3,3-dimethyl-6-(2-(pyridin-4-yl)oxazol-5-yl)indolin-2-one]",78.8
5,"CC1(C)C(=O)N(C2COC2)c2cc(-c3nnc(-c4ccncc4)o3)ccc21 [Example 11, 3,3-Dimethyl-1-(oxetan-3-yl)-6-(5-(pyridin-4-yl)-1,3,4-oxadiazol-2-yl)indolin-2-one]",80.9
6,"Cc1cc(-c2cnc(-c3ccc4c(c3)N(C3CC3)C(=O)C4(C)C)o2)ccn1 [Example 19, 1-Cyclopropyl-3,3-dimethyl-6-(5-(2-methylpyridin-4-yl)oxazol-2-yl)indolin-2-one]",55.9
7,"CN1C(=O)C(C)(C)c2ccc(-n3cnc(-c4ccncc4)c3)cc21 [Example 20, 1,3,3-Trimethyl-6-(4-(pyridin-4-yl)-1H-imidazol-1-yl)indolin-2-one]",64.4
8,"Cc1cc(-c2ncc(-c3ccc4c(c3)N(C)C(=O)C4(C)C)o2)ccn1 [Example 22, 1,3,3-Trimethyl-6-(2-(2-methylpyridin-4-yl)oxazol-5-yl)indolin-2-one]",55.9
9,"CN1C(=O)C(C)(C)c2ccc(-n3cc(-c4cccnc4)cn3)cc21 [Example 41, 1,3,3-Trimethyl-6-(4-(pyridin-3-yl)-1H-pyrazol-1-yl)indolin-2-one]",50.3
10,"CC1(C)C(=O)N(C2COC2)c2cc(-n3cc(-c4cccnc4)cn3)ccc21 [Example 43, 3,3-Dimethyl-1-(oxetan-3-yl)-6-(4-(pyridin-3-yl)-1H-pyrazol-1-yl)indolin-2-one]",47.3
11,"CN1C(=O)C(C)(C)c2ccc(-c3coc(-c4cccnc4)n3)cc21 [Example 44, 1,3,3-Trimethyl-6-(2-(pyridin-3-yl)oxazol-4-yl)indolin-2-one]",52.1
12,"CN1C(=O)C(C)(C)c2ccc(-c3cnn(-c4cccnc4)c3)cc21 [Example 50, 1,3,3-Trimethyl-6-(1-(pyridin-3-yl)-1H-pyrazol-4-yl)indolin-2-one]",44
13,"CC1(C)C(=O)Nc2cc(-n3cc(-c4cccnc4)cn3)ccc21 [Example 51, 3,3-Dimethyl-6-(4-(pyridin-3-yl)-1H-pyrazol-1-yl)indolin-2-one]",61
14,"CC1(C)C(=O)N(C2CC2)c2cc(-n3cc(-c4cccnc4)cn3)ccc21 [Example 52, 1-Cyclopropyl-3,3-dimethyl-6-(4-(pyridin-3-yl)-1H-pyrazol-1-yl)indolin-2-one]",82.1
15,"Cc1cc(-c2cnn(-c3ccc4c(c3)N(C)C(=O)C4(C)C)c2)ccn1 [Example 54, 1,3,3-Trimethyl-6-(4-(2-methylpyridin-4-yl)-1H-pyrazol-1-yl)indolin-2-one]",41.6
16,"Cc1cc(-c2cnn(-c3ccc4c(c3)N(C3CC3)C(=O)C4(C)C)c2)ccn1 [Example 55, 1-Cyclopropyl-3,3-dimethyl-6-(4-(2-methylpyridin-4-yl)-1H-pyrazol-1-yl)indolin-2-one]",42.7
17,"CN1C(=O)C(C)(C)c2ccc(-n3cc(-c4ccncc4)nn3)cc21 [Example 57, 1,3,3-Trimethyl-6-(4-(pyridin-4-yl)-1H-1,2,3-triazol-1-yl)indolin-2-one]",89.2
18,"COc1cnccc1-c1ncc(-c2ccc3c(c2)NC(=O)C3(C)C)o1 [Example 63, 6-(2-(3-Methoxypyridin-4-yl)oxazol-5-yl)-3,3-dimethylindolin-2-one]",75
19,"Cc1ccc(-c2cnn(-c3ccc4c(c3)N(C3CC3)C(=O)C4(C)C)c2)cn1 [Example 69, 1-Cyclopropyl-3,3-dimethyl-6-(4-(6-methylpyridin-3-yl)-1H-pyrazol-1-yl)indolin-2-one]",53.3
20,"Cc1cc(-n2cnc(-c3ccc4c(c3)N(C3CC3)C(=O)C4(C)C)c2)ccn1 [Example 74, 1-Cyclopropyl-3,3-dimethyl-6-(1-(2-methylpyridin-4-yl)-1H-imidazol-4-yl)indolin-2-one]",71.4
21,"Cc1nc(-c2ccc3c(c2)N(C)C(=O)C3(C)C)cn1-c1ccncc1 [Example 77, 1,3,3-Trimethyl-6-(2-methyl-1-(pyridin-4-yl)-1H-imidazol-4-yl)indolin-2-one]",89.4
22,"Cc1ccc(-c2cc(-c3ccc4c(c3)N(C)C(=O)C4(C)C)n[nH]2)cn1 [Example 80, 1,3,3-Trimethyl-6-(5-(6-methylpyridin-3-yl)-1H-pyrazol-3-yl)indolin-2-one]",62.6
23,"Cc1cnccc1-n1cnc(-c2ccc3c(c2)N(C)C(=O)C3(C)C)c1 [Example 88, 1,3,3-Trimethyl-6-(1-(3-methylpyridin-4-yl)-1H-imidazol-4-yl)indolin-2-one]",93.1
24,"Cc1cnccc1-n1cnc(-c2ccc3c(c2)N(C2CC2)C(=O)C3(C)C)c1 [Example 89, 1-Cyclopropyl-3,3-dimethyl-6-(1-(3-methylpyridin-4-yl)-1H-imidazol-4-yl)indolin-2-one]",58.5

# Same assay, conditions: dose ip 30 mg/kg at the same time as s.c. 50 mg/kg L-687,414; horizontal activity over 30 min
row,Compound,"Inhibition, ip [%]"
1,"1,3,3-Trimethyl-6-(3-pyridin-4-yl-isoxazol-5-yl)-1,3-dihydro-indol-2-one [Example 42]",58.4
2,"1,3,3-Trimethyl-6-(4-(pyridin-3-yl)-1H-imidazol-1-yl)indolin-2-one [Example 29]",80.3
3,"1-Cyclopropyl-3,3-dimethyl-6-(2-(2-methylpyridin-4-yl)oxazol-5-yl)indolin-2-one [Example 12]",49.1
4,"3,3-Dimethyl-6-[1-(2-methyl-4-pyridyl)imidazol-4-yl]-1-(2-methylpyrimidin-5-yl)indolin-2-one [Example 113]",69.9
5,"6-[1-(3-Fluoro-4-pyridyl)imidazol-4-yl]-3,3-dimethyl-1-(2-methylpyrimidin-5-yl)indolin-2-one [Example 110]",85.4

# Same assay, conditions: dose producing 50% inhibition of L-687,414-induced hyperlocomotion; p.o. 15 min before s.c. 50 mg/kg L-687,414; doses 1-3-10 (Expl. 2: 3-10-30) mg/kg
row,Compound,ID50 po [mg/kg]
1,"CN1C(=O)C(C)(C)c2ccc(-c3ncc(-c4ccccc4)[nH]3)cc21 [Example 2, 1,3,3-Trimethyl-6-(5-phenyl-1H-imidazol-2-yl)indolin-2-one]",10.71
2,"Cc1ccc(-c2ncc(-c3ccc4c(c3)N(C3CC3)C(=O)C4(C)C)o2)cn1 [Example 33, 1-Cyclopropyl-3,3-dimethyl-6-(2-(6-methylpyridin-3-yl)oxazol-5-yl)indolin-2-one]",3.36
3,"Cc1cc(-c2nnc(-c3ccc4c(c3)N(C3COC3)C(=O)C4(C)C)o2)ccn1 [Example 49, 3,3-Dimethyl-6-(5-(2-methylpyridin-4-yl)-1,3,4-oxadiazol-2-yl)-1-(oxetan-3-yl)indolin-2-one]",5.02
4,"CN1C(=O)C(C)(C)c2ccc(-c3cn(-c4ccncc4F)cn3)cc21 [Example 73, 6-(1-(3-Fluoropyridin-4-yl)-1H-imidazol-4-yl)-1,3,3-trimethylindolin-2-one]",2.97
5,"CC1(C)C(=O)N(C2CC2)c2cc(-c3cn(-c4ccncc4F)cn3)ccc21 [Example 76, 1-Cyclopropyl-6-(1-(3-fluoropyridin-4-yl)-1H-imidazol-4-yl)-3,3-dimethylindolin-2-one]",<1
